Reference: patent publication US20140206681A1, “BTK INHIBITORS” (priority 2013, published 2014)
pIC50: −log10 of the molar value.

Key:
[1] = tested on: HeLa cells; experiment: [3H]Adenosine uptake functional cellular assay; type: cell-based; conditions: Homo sapiens, HeLa, accumulation of [3H]adenosine into HeLa cells; compound range 10 μM to […]; read-out: Adenosine uptake inhibition IC50
Summary of the method: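 Inhibition of adenosine uptake was measured in HeLa cells (ATCC CCL-2) by following accumulation of tritiated adenosine. Cells were kept overnight at 37° C. with 5% (v/v) CO2, then switched to 40 μL HBSS plus 5% (v/v) FBS. 20 μL of 500 nM [3H]adenosine was added, and uptake was counted on a Topcount NXT reader.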

[2] = biological target: T1, BTK enzyme (recombinant full-length BTK, hBTK) (Homo sapiens, UniProt Q06187); experiment: BTK enzyme activity assay, LANCE TR-FRET; type: biochemical; conditions: 50 pM hBTK, 2 μM biotin-A5-peptide, 25 μM ATP; 60 min compound & enzyme incubation; read-out: IC50 BTK activity value
T1 construct: recombinant protein from baculovirus-transfected Sf9 cells: full-length BTK, 6HIS-tag cleaved; 6HIS (cleaved yes); made in house; host or cells: baculovirus-transfected Sf9 cells
T1 sequence (Q06187 whole entry): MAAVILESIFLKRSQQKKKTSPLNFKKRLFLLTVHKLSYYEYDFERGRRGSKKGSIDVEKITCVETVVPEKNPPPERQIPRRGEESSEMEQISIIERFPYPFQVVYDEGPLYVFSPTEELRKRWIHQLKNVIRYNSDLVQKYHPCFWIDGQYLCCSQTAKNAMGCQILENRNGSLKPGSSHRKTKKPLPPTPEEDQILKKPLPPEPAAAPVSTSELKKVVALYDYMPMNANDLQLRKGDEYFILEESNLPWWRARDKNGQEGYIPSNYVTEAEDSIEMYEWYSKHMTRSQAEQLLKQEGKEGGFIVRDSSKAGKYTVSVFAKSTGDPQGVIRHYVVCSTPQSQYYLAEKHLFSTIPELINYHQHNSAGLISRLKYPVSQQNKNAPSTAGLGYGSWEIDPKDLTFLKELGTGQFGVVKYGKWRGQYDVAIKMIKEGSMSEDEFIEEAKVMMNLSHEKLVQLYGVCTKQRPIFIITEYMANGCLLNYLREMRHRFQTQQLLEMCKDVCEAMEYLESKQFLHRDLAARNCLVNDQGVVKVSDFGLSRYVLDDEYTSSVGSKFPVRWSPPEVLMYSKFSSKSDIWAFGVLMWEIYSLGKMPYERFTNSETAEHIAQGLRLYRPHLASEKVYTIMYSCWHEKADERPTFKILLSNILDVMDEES

SMILES | pIC50 [1] | pIC50 [2]
COc1cc(C(=O)Nc2cc(C(F)(F)F)ccn2)cc(F)c1-c1nc([C@@H]2CC[C@H]3CCC(=O)N3C2)n2c(Cl)cnc(N)c12 [Example 217, 4-{8-amino-5-chloro-3-[(6R,8aS)-3-oxooctahydroindolizin-6-yl]imidazo[1,5-a]pyrazin-1-yl}-3-fluoro-5-methoxy-N-[4-(trifluoromethyl)pyridin-2-yl]benzamide] | 6.15 | 9.77
COc1cc(C(=O)Nc2cc(C(F)(F)F)ccn2)c(Cl)cc1-c1nc([C@@H]2CC[C@H]3CCC(=O)N3C2)n2c(Cl)cnc(N)c12 [Example 218, 4-{8-amino-5-chloro-3-[(6R,8aS)-3-oxooctahydroindolizin-6-yl]imidazo[1,5-a]pyrazin-1-yl}-2-chloro-5-methoxy-N-[4-(trifluoromethyl)pyridin-2-yl]benzamide] | 5.31 | 8.74
COc1cc(C(=O)Nc2cc(C(F)(F)F)ccn2)cc(F)c1-c1nc([C@@H]2CC[C@H]3CC(C)(C)C(=O)N3C2)n2ccnc(N)c12 [Example 219, 4-{8-amino-3-[(6R,8aS)-2,2-dimethyl-3-oxooctahydroindolizin-6-yl]imidazo[1,5-a]pyrazin-1-yl}-3-fluoro-5-methoxy-N-[4-(trifluoromethyl)pyridin-2-yl]benzamide] | 6.14 | 9.55

The next lines start with the values.

pIC50 [1] | pIC50 [2] | SMILES
5.61 | 8.40 | CCOc1cc(C(=O)Nc2cc(C(F)(F)F)n(C)n2)ccc1-c1nc([C@@H]2CC[C@H]3CCC(=O)N3C2)n2c(C(F)(F)F)cnc(N)c12 [Example 215, 4-{8-amino-3-[(6R,8aS)-3-oxooctahydroindolizin-6-yl]-5-(trifluoromethyl)imidazo[1,5-a]pyrazin-1-yl}-3-ethoxy-N-[1-methyl-5-(trifluoromethyl)-1H-pyrazol-3-yl]benzamide]
6.05 | 8.18 | CC(F)(F)Oc1cc(C(=O)Nc2cc(C(F)(F)F)ccn2)ccc1-c1nc([C@@H]2CC[C@H]3CCC(=O)N3C2)n2c(Cl)cnc(N)c12 [Example 216, 4-{8-amino-5-chloro-3-[(6R,8aS)-3-oxooctahydroindolizin-6-yl]imidazo[1,5-a]pyrazin-1-yl}-3-(1,1-difluoroethoxy)-N-[4-(trifluoromethyl)pyridin-2-yl]benzamide]
5.82 | 9.40 | COc1cc(C(=O)Nc2cc(C(F)(F)F)ccn2)cc(F)c1-c1nc([C@@H]2CC[C@H]3CCC(=O)N3C2)n2c(F)cnc(N)c12 [Example 220, 4-{8-amino-5-fluoro-3-[(6R,8aS)-3-oxooctahydroindolizin-6-yl]imidazo[1,5-a]pyrazin-1-yl}-3-fluoro-5-methoxy-N-[4-(trifluoromethyl)pyridin-2-yl]benzamide]
